# Measurements reported in patent US20160319239A1, “COMPOSITIONS AND METHODS FOR CULTURING CELLS FROM NORMAL HUMAN TUBO-OVARIAN EPITHELIUM AND HUMAN TUBO-OVARIAN TUMORS” (Whitehead Institute for Biomedical Research, priority 2011, published 2016).
# Tested on: OCI ovarian tumor lines (P7a, P2a, C2p) and ATCC/ECACC ovarian tumor lines (ES2 and OV90)
# Assay: Alamar Blue viable cell assay with serial dilutions of paclitaxel or cisplatin, OCI vs ATCC/ECACC lines
# Assay type: cell-based, human
# Conditions: WIT-oc medium, 5000 cells/well, 72 hrs drug incubation
# Method: The next day serial dilutions of paclitaxel were added to the plate.
# The next day serial dilutions of cisplatin were added to the plate. […] There was a dramatic difference in the effect of the paclitaxel or cisplatin on OCI cell lines vs. ATCC/ECACC cell lines.
# Cisplatin is an example of a chemotherapeutic drug that causes DNA cross linking. Cisplatin binds to DNA and chemically crosslinks the two strands, which causes DNA damage during cell division. This elicits repair mechanisms, which in turn activate apoptosis when repair proves impossible. We plated the OCI ovarian tumor lines (P7a, P2a, C2p) and ATCC/ECACC ovarian tumor lines (ES2 and OV90) in WIT-oc medium (5000 cells/well) in plates in triplicate. The next day serial dilutions of cisplatin were added to the plate.
structure (smiles),measurement,value
N.N.[Cl][Pt][Cl] [cisplatin],"concentration that produced a 50% decrease in tumor cell numbers (LD90), fold higher in OCI lines compared to ATCC/ECACC lines",more than 6 fold
